The values below come from PubChem BioAssay (NCI).

Holding throughout (assay): NCI-60 cell line screen, 48 h
Assay [1] concerns OVCAR-8 ovarian.
Assay [2] relates to MDA-MB-435.
Assay [3] relates to HL-60(TB) leukemia.
The subject of assay [4] is SK-MEL-28 melanoma.
The subject of assay [5] is NCI-H460 lung.
In assay [6] the test system is NCI/ADR-RES ovarian.
In assay [7] the test system is SF-268 CNS.
The subject of assay [8] is CAKI-1 renal.
Assay [9] concerns EKVX NSCLC.
For assay [10], the system named is OVCAR-5 ovarian.

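Dose response: 5 concentrations. Exposure: 48 h. Format: 96-well plates. Endpoint: linear interpolation; highest concentration if not reached. GI50 is the concentration that inhibits growth by half. Definition used: TGI = concentration required for complete inhibition of growth.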 A value given as a limit tells only on which side of the number the result lay.

Take `COC1CCC(OC)C(c2nc3sccn3c2/C=N/N=C(N)N)C1` (stereo not given): the GI50 is 22.1 µM in assay [1]; 17.2 µM in assay [2]; 1.21 µM in assay [3]; 34.9 µM in assay [4]; 27.7 µM in assay [5]; over 100 µM in assay [6]. Besides, the GI50 in assay [7] is 18.5 µM; in assay [8], over 10.5 µM; in [9] it was 34.8 µM; in [10], 2.84 µM. The TGI in assay [1] was 55.6 µM; in assay [2] it was 36 µM; in [3], over 36.7 µM; in [4], over 94.4 µM; in assay [5] it was over 76.5 µM; in assay [6] it was over 100 µM. For the same compound, the TGI was 45.8 µM in assay [7], over 82.5 µM in assay [8], over 92.7 µM in [9] and over 51.7 µM in assay [10].
Consider `CC(C)C(Br)C(=O)NCC(=O)O` (stereo not given), for which the TGI in assay [1], in assay [2], in assay [3], in assay [4], in [5] and in assay [6] was over 100 µM throughout. The TGI in assay [7], in [8], in assay [9] and in assay [10] was over 100 µM each time.
In the case of `OC(Cc1cccc2ccccc12)CN1CCC(c2ccccc2)CC1` (stereo not given), the TGI came out at 32 µM in assay [1]; 28.3 µM in assay [2]; 41.2 µM in assay [3]; 26.8 µM in assay [4]; 28.4 µM in assay [5]; 28.5 µM in assay [6]. Moreover, the TGI worked out at 28.2 µM in [7], 24.5 µM in [8], 27.1 µM in assay [9] and 27.7 µM in assay [10].
Turning to `NC(=S)c1cccc(C2Nc3ccccc3O2)c1` (stereo not given), the TGI in [1], in [2], in assay [3], in assay [4], in assay [5] and in [6] was over 100 µM each time. Further, the TGI in assay [7], in [8], in assay [9] and in assay [10] was over 100 µM each time.
Regarding `Cn1cc(-c2csc(-c3ccc(Cl)cc3)n2)c2cccnc21`, the GI50 in [1] is 22.8 µM; in assay [2] it was 12.8 µM; in assay [3], 10.4 µM; in assay [4] it was 15.2 µM; in assay [5] it was 16 µM; in assay [6], 15.8 µM. Also, the GI50 in assay [7] was 15.4 µM; in [8] it was 6.99 µM; in assay [9], 2.85 µM; in assay [10] it was 14.2 µM. Besides, the TGI turned out to be 66.6 µM in [1]; 33.6 µM in assay [2]; 47.5 µM in assay [3]; 29.4 µM in assay [4]; 34.4 µM in assay [5]; 34.4 µM in [6]. For the same compound, the TGI in assay [7] turned out to be 34 µM; in assay [8] it was 25.6 µM; in assay [9], 26.1 µM; in assay [10] it was 32.7 µM.
`COc1ccc(C(=O)Cn2c(C(=O)c3ccc(Cl)cc3)nc(-c3ccccc3)c2-c2ccccc2)cc1`: the GI50 in assay [1], in [2], in assay [3], in assay [4], in assay [5] and in [6] was over 100 µM in each case. The GI50 was over 100 µM in [7], 31.2 µM in assay [8], over 100 µM in assay [9] and over 100 µM in [10]. Moreover, the TGI in assay [1], in assay [2], in assay [3], in [4], in assay [5] and in assay [6] was over 100 µM throughout. In addition, the TGI in assay [7], in assay [8], in [9] and in assay [10] was over 100 µM in each case.
With `N#C/C(=C/C=C/c1cccc(Cl)c1)S(=O)c1ccccc1` (stereo not given), the GI50 is 0.256 µM in assay [1]; 0.448 µM in [2]; 0.285 µM in assay [3]; 1.23 µM in assay [4]; 0.474 µM in [5]; 0.278 µM in assay [6]. Further, the GI50 in assay [7] was 0.391 µM; in assay [8], 0.283 µM; in assay [9], 0.803 µM; in assay [10], 0.391 µM. In addition, the TGI amounted to 0.629 µM in assay [1]; 1.69 µM in [2]; 2.16 µM in assay [3]; 2.68 µM in [4]; 2.51 µM in assay [5]; 0.859 µM in assay [6]. In addition, the TGI in assay [7] was determined as 2.14 µM; in [8], 1.08 µM; in assay [9], 2.23 µM; in assay [10], 1.7 µM.
`COc1cc(C=NCC(=O)CSC(c2ccccc2)c2ccccc2)ccc1O`: the GI50 was 12.6 µM in [1]; 14.3 µM in assay [2]; 11.4 µM in assay [3]; 14.4 µM in assay [4]; 20.1 µM in [5]; 7.78 µM in assay [6]. In addition, the GI50 in [7] is 17.2 µM; in assay [8] it was 16.6 µM; in assay [9] it was 14.3 µM; in [10] it was 16.4 µM. Further, the TGI in [1] came out at 25.1 µM; in assay [2], 35.7 µM; in assay [3] it was 27.6 µM; in assay [4], 27.6 µM; in assay [5] it was 56.2 µM; in assay [6], 29.2 µM. Besides, the TGI in assay [7] came out at 40 µM; in assay [8], 43.2 µM; in assay [9], 50.7 µM; in assay [10], 30.4 µM.
For the compound `COc1ccc(-c2cn3ccnc3c(-c3ccc(Cl)cc3)n2)cc1`, the GI50 in assay [1] was 15 µM; in [2], 2.56 µM; in [3], 5.14 µM; in assay [4] it was 5.37 µM; in [5] it was 10.8 µM; in assay [6] it was 3.77 µM. The GI50 in assay [7] was 10.6 µM; in assay [8], 2.9 µM; in assay [9], 2.39 µM; in assay [10] it was 9.52 µM. Moreover, the TGI in assay [1] is over 100 µM; in assay [2], 8.62 µM; in [3], over 100 µM; in assay [4] it was over 100 µM; in [5], over 100 µM; in [6], 28.2 µM. The TGI in [7] was 64.8 µM; in assay [8], 11 µM; in assay [9], over 100 µM; in [10] it was over 100 µM.
`COc1cc(N)c(Cl)cc1C(=O)N[C@@H]1CCN(CCCOc2ccc(F)cc2)C[C@@H]1OC`: the GI50 was over 100 µM in assay [1]; over 100 µM in assay [2]; 82.4 µM in assay [3]; over 100 µM in [4]; 66.9 µM in assay [5]; over 100 µM in assay [6]. The GI50 in assay [7], in assay [8], in assay [9] and in assay [10] was over 100 µM throughout. The TGI in assay [1], in [2], in [3], in assay [4], in assay [5] and in assay [6] was over 100 µM in each case. In addition, the TGI in assay [7], in assay [8], in assay [9] and in assay [10] was over 100 µM throughout.
As for `O=C1C=C(NCCc2ccccc2)c2ccccc2C1=O`, the TGI in [1] amounted to 19.7 µM; in [2] it was 2.34 µM; in assay [3], 13.6 µM; in [4] it was 3.96 µM; in assay [5] it was 3.18 µM; in assay [6] it was 23 µM. Further, the TGI in [7] worked out at 23.1 µM; in assay [8], 21.8 µM; in [9] it was 20.8 µM; in assay [10], 3.39 µM.
In the case of `BrCc1ccc2ccc3ccc(CBr)nc3c2n1`, the TGI in assay [1] is 15.7 µM; in [2], 16.6 µM; in assay [3] it was 5.28 µM; in [4] it was 6.02 µM; in assay [5], 20.2 µM; in [6], 5.15 µM. The TGI in assay [7] was found to be 9.04 µM; in [8], 12.7 µM; in assay [9], 22.6 µM; in [10], 27.1 µM.
Turning to `COC(=O)c1c(C(=O)O)c(-c2ccccc2)c(-c2ccccc2)c(-c2ccccc2)c1-c1ccccc1`, the GI50 in assay [1] is over 100 µM; in assay [2], over 100 µM; in assay [3], over 100 µM; in assay [4] it was 93.4 µM; in assay [5], over 100 µM; in [6], over 100 µM. For the same compound, the GI50 in assay [7], in assay [8], in [9] and in assay [10] was over 100 µM in each case. The TGI in [1], in [2], in assay [3], in [4], in assay [5] and in [6] was over 100 µM throughout. For the same compound, the TGI in [7], in assay [8], in assay [9] and in assay [10] was over 100 µM each time.
